Results taken from the NIST ThermoML archive (doi:10.1016/j.fluid.2013.11.008).
± gives the expanded uncertainty stated by the source.

How the values were obtained:
[1] = for mass density: 298.15 K, 101.33 kPa, Liquid, Pycnometric method
[2] = Molar enthalpy of transition or fusion; details: Crystal; DSC

In the case of `C[C@]12CCC(=O)C=C1CC[C@@H]1[C@@H]2CC[C@]2(C)C(=O)CC[C@@H]12` [androst-4-ene-3,17-dione], the Normal melting temperature ([1]; Crystal, DTA) is reported as 171.39 ± 0.7 °C and the “Molar enthalpy of transition or fusion” value [2] is reported as 6.14 ± 0.382 kcal/mol.

Molecule `CCCCO` [butan-1-ol] has a mass density [1] of 805.5 ± 40 kg/m3.

`CCO` [ethanol] showed a mass density [1] of 786.4 ± 40 kg/m3.

In the case of `CO` [methanol], the mass density [1] is reported as 785.9 ± 40 kg/m3.

Molecule `CC(C)O` [propan-2-ol] has a mass density [1] of 782.7 ± 40 kg/m3.
